Experimental findings from paper PMC9386204, “Design, synthesis, and in silico studies of quinoline-based-benzo[d]imidazole bearing different acetamide derivatives as potent α-glucosidase inhibitors” (Scientific Reports, 2022) are described below.

Where only a bound is given, the exact number is not on record here.

In data set [1] the target is T1, α-glucosidase (Saccharomyces cerevisiae, UniProt P53341). The experiment in a line: α-Glucosidase inhibitory assay. As to conditions: for IC50: α-glucosidase inhibition, mean ± SD.
T1 sequence (P53341 whole entry): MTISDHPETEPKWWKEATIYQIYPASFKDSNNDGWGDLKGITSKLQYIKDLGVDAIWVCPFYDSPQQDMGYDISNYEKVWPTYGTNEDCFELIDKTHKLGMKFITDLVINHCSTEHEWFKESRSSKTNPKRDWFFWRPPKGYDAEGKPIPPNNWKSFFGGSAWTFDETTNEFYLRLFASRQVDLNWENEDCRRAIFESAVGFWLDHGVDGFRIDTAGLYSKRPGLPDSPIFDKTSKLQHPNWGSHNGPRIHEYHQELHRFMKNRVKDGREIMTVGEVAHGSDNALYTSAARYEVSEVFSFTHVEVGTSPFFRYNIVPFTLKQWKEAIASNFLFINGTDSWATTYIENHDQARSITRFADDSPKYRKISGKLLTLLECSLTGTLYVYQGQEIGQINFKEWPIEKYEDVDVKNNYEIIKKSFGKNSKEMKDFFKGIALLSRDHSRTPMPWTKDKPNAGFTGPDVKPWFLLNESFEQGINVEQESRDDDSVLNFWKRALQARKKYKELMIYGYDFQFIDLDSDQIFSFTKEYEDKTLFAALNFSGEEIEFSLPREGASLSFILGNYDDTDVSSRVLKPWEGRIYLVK
Description: The α-glucosidase inhibitory activities of all synthesized derivatives were assayed according to the previously reported procedure[9],[36].
The nature of data set [2]: Concentrations of precipitation. It is filed as physicochemical. From the text:
Table 1 α-Glucosidase inhibitory activity of compounds 9a–r. | column: Concentrations of precipitation (µM)

For data set [3], the target named is T1, α-glucosidase. In words: Enzyme kinetic studies (Lineweaver–Burk plot, secondary plot). It is filed as biochemical. As to conditions: Km increased, Vmax unchanged. The method, then:
A Lineweaver–Burk plot was generated to identify the type of inhibition and the Michaelis–Menten constant (Km) value was determined from the plot between reciprocal of the substrate concentration (1/[S]) and reciprocal of enzyme rate (1/V) over various inhibitor concentrations. The experimental inhibitor constant (Ki) value was constructed by secondary plots of the inhibitor concentration [I] versus Km[6].

For orientation: IC50 means the midpoint of a concentration-inhibition curve. “2-((3-(1H-benzo[d]imidazol-2-yl)naphthalen-2-yl)thio)-N-(4-fluorophenyl)acetamide [Compound 9c]” gave an IC50 at α-glucosidase [1] of 13.5 ± 0.6 µM. Besides, the Concentrations of precipitation in data set [2] is at least 200 µM.

In data set [2], `O=C(CSc1nc2ccccc2cc1-c1nc2ccccc2[nH]1)Nc1ccccc1` [Compound 9a, 2-((3-(1H-benzo[d]imidazol-2-yl)quinolin-2-yl)thio)-N-phenylacetamide] displayed a Concentrations of precipitation of at least 200 µM.

Usually melting point stands for the temperature of the solid-liquid transition. Take `O=C(CSc1nc2ccccc2cc1-c1nc2ccccc2[nH]1)Nc1ccccc1F` [Compound 9b, 2-((3-(1H-benzo[d]imidazol-2-yl)quinolin-2-yl)thio)-N-(2-fluorophenyl)acetamide]: the melting point was in the range of 183 to 185 °C. For the same compound, the “fold loss of potency compared to 9a” value at α-glucosidase [1] (versus 9a) is reported as “around the twofold loss of potency”. In data set [2], this compound returned a Concentrations of precipitation of at least 200 µM.

Turning to `O=C(CSc1nc2ccccc2cc1-c1nc2ccccc2[nH]1)Nc1cccc(Cl)c1` [Compound 9d, 2-((3-(1H-benzo[d]imidazol-2-yl)quinolin-2-yl)thio)-N-(3-chlorophenyl)acetamide], the melting point is 190 to 192 °C. In addition, the type of inhibition entry at α-glucosidase [3] is “competitive inhibition”. Moreover, the Concentrations of precipitation in data set [2] is recorded as at least 200 µM.

Compound `O=C(CSc1nc2ccccc2cc1-c1nc2ccccc2[nH]1)Nc1ccc(Cl)cc1` [Compound 9e, 2-((3-(1H-benzo[d]imidazol-2-yl)quinolin-2-yl)thio)-N-(4-chlorophenyl)acetamide] displayed a melting point of 185 to 187 °C. Besides, in data set [2], the Concentrations of precipitation is at least 200 µM.

Turning to `O=C(CSc1nc2ccccc2cc1-c1nc2ccccc2[nH]1)Nc1ccccc1Br` [Compound 9f, 2-((3-(1H-benzo[d]imidazol-2-yl)quinolin-2-yl)thio)-N-(2-bromophenyl)acetamide], the melting point was 181 to 183 °C. In data set [2], this compound registered a Concentrations of precipitation of at least 200 µM.

`O=C(CSc1nc2ccccc2cc1-c1nc2ccccc2[nH]1)Nc1ccc(Br)cc1` [Compound 9g, 2-((3-(1H-benzo[d]imidazol-2-yl)quinolin-2-yl)thio)-N-(4-bromophenyl)acetamide] gave a melting point of 185 to 187 °C. In data set [2], the Concentrations of precipitation is reported as at least 200 µM.

On to `O=C(CSc1nc2ccccc2cc1-c1nc2ccccc2[nH]1)Nc1c(Cl)cccc1Cl` [Compound 9h, 2-((3-(1H-benzo[d]imidazol-2-yl)quinolin-2-yl)thio)-N-(2,6-dichlorophenyl)acetamide], for which the melting point lay within 188 to 190 °C. Further, in data set [2], the Concentrations of precipitation is recorded as at least 200 µM.

On to `O=C(CSc1nc2ccccc2cc1-c1nc2ccccc2[nH]1)Nc1ccc([N+](=O)[O-])cc1` [Compound 9i, 2-((3-(1H-benzo[d]imidazol-2-yl)quinolin-2-yl)thio)-N-(4-nitrophenyl)acetamide], for which the melting point was 180 to 182 °C. Further, the Concentrations of precipitation in data set [2] is at least 200 µM.

In turn, `Cc1ccccc1NC(=O)CSc1nc2ccccc2cc1-c1nc2ccccc2[nH]1` [Compound 9j] yielded a Concentrations of precipitation in data set [2] of at least 200 µM.

In turn, `Cc1ccc(NC(=O)CSc2nc3ccccc3cc2-c2nc3ccccc3[nH]2)cc1` [Compound 9k] yielded a melting point of 181 to 183 °C. The compound also had a Concentrations of precipitation in data set [2] of at least 200 µM.

`COc1ccc(NC(=O)CSc2nc3ccccc3cc2-c2nc3ccccc3[nH]2)cc1` [Compound 9l, 2-((3-(1H-benzo[d]imidazol-2-yl)quinolin-2-yl)thio)-N-(4-methoxyphenyl)acetamide] displayed a melting point of 191 to 193 °C. Further, the Concentrations of precipitation in data set [2] was at least 200 µM.

`CCc1ccc(NC(=O)CSc2nc3ccccc3cc2-c2nc3ccccc3[nH]2)cc1` [Compound 9m, 2-((3-(1H-benzo[d]imidazol-2-yl)quinolin-2-yl)thio)-N-(4-ethylphenyl)acetamide] yielded a melting point of 178 to 180 °C. The same compound displayed a Concentrations of precipitation in data set [2] of at least 200 µM.

Compound `Cc1cccc(NC(=O)CSc2nc3ccccc3cc2-c2nc3ccccc3[nH]2)c1C` [Compound 9n, 2-((3-(1H-benzo[d]imidazol-2-yl)quinolin-2-yl)thio)-N-(2,3-dimethylphenyl)acetamide] yielded a melting point of 185 to 187 °C. In data set [2], this compound gave a Concentrations of precipitation of at least 200 µM.

As for `Cc1cccc(C)c1NC(=O)CSc1nc2ccccc2cc1-c1nc2ccccc2[nH]1` [Compound 9o, 2-((3-(1H-benzo[d]imidazol-2-yl)quinolin-2-yl)thio)-N-(2,6-dimethylphenyl)acetamide], the melting point is 185 to 187 °C. The compound further came in with a Concentrations of precipitation in data set [2] of at least 200 µM.

Turning to `O=C(CSc1nc2ccccc2cc1-c1nc2ccccc2[nH]1)Nc1ccc2ccccc2c1` [Compound 9p, 2-((3-(1H-benzo[d]imidazol-2-yl)quinolin-2-yl)thio)-N-(naphthalen-2-yl)acetamide], 17.7 ± 0.8 µM corresponded to half-maximal inhibition against α-glucosidase [1] (IC50). In data set [2], this compound had a Concentrations of precipitation of at least 200 µM.

With `O=C(CSc1nc2ccccc2cc1-c1nc2ccccc2[nH]1)NCc1ccccc1` [Compound 9q, 2-((3-(1H-benzo[d]imidazol-2-yl)quinolin-2-yl)thio)-N-benzylacetamide], the melting point was in the range of 183 to 185 °C. The Concentrations of precipitation in data set [2] was at least 200 µM.

On to `O=C(CSc1nc2ccccc2cc1-c1nc2ccccc2[nH]1)NCc1ccc(F)cc1` [Compound 9r, 2-((3-(1H-benzo[d]imidazol-2-yl)quinolin-2-yl)thio)-N-(4-fluorobenzyl)acetamide], for which the melting point was 186 to 188 °C. In data set [2], this compound returned a Concentrations of precipitation of at least 200 µM.
